Measured values taken from patent publication US9006250B2, “4-amino-6-(heterocyclic)picolinates and 6-amino-2-(heterocyclic)pyrimidine-4-carboxylates and their use as herbicides” (Dow AgroSciences, LLC, priority 2013, dated 2015).

What was measured:
[1] = tested on: SETFA: giant foxtail (Setaria faberi); test: Post-Emergent Test II herbicidal activity; type: in vivo; settings: post-emergence, 336 h, 14 days, read-out: Visual Growth Reduction (%) 14 Days After Application SETFA
Procedure, shortened: (§1)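 Greenhouse post-emergence spray, 1st–2nd true leaf stage. Track sprayer, 187 L/ha, acetone/DMSO/IPA/crop oil/Triton formulation; 1×, ½×, ¼×, ⅛×, 1/16× rates. Subirrigated; % injury vs untreated, 14 d.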

[2] = tested on: ECHCG: barnyardgrass (Echinochloa crus-galli); test: Post-Emergent Test II herbicidal activity; type: in vivo; settings: post-emergence, 336 h, 14 days, read-out: Visual Growth Reduction (%) 14 Days After Application ECHCG
Procedure, shortened: as §1

[3] = tested on: HELAN: sunflower (Helianthus annuus); test: Post-Emergent Test II herbicidal activity; type: in vivo; settings: post-emergence, 336 h, 14 days, read-out: Visual Growth Reduction (%) 14 Days After Application HELAN
Procedure, shortened: as §1

[4] = tested on: TRZAS: wheat, spring (Triticum aestivum); test: Post-Emergent Test II herbicidal activity; type: in vivo; settings: post-emergence, 336 h, 14 days, read-out: Visual Growth Reduction (%) 14 Days After Application TRZAS
Procedure, shortened: as §1

[5] = tested on: ABUTH: velvetleaf (Abutilon theophrasti); test: Post-Emergent Test II herbicidal activity; type: in vivo; settings: post-emergence, 336 h, 14 days, read-out: Visual Growth Reduction (%) 14 Days After Application ABUTH
Procedure, shortened: as §1

[6] = tested on: BRSNN: oilseed rape, canola (Brassica napus); test: Post-Emergent Test II herbicidal activity; type: in vivo; settings: post-emergence, 336 h, 14 days, read-out: Visual Growth Reduction (%) 14 Days After Application BRSNN
Procedure, shortened: as §1

[7] = tested on: AMARE: redroot pigweed (Amaranthus retroflexus); test: Post-Emergent Test II herbicidal activity; type: in vivo; settings: post-emergence, 336 h, 14 days, read-out: Visual Growth Reduction (%) 14 Days After Application AMARE
Procedure, shortened: as §1

[8] = tested on: CHEAL: lambsquarters (Chenopodium album); test: Post-Emergent Test II herbicidal activity; type: in vivo; settings: post-emergence, 336 h, 14 days, read-out: Visual Growth Reduction (%) 14 Days After Application CHEAL
Procedure, shortened: as §1

[9] = tested on: EPHHL: wild poinsettia (Euphorbia heterophylla); test: Post-Emergent Test II herbicidal activity; type: in vivo; settings: post-emergence, 336 h, 14 days, read-out: Visual Growth Reduction (%) 14 Days After Application EPHHL
Procedure, shortened: as §1

[10] = tested on: ZEAMX: maize, corn (Zea mays); test: Post-Emergent Test II herbicidal activity; type: in vivo; settings: post-emergence, 336 h, 14 days, read-out: Visual Growth Reduction (%) 14 Days After Application ZEAMX
Procedure, shortened: as §1

[11] = tested on: ORYSA: rice (Oryza sativa); test: Post-Emergent Test II herbicidal activity; type: in vivo; settings: post-emergence, 336 h, 14 days, read-out: Visual Growth Reduction (%) 14 Days After Application ORYSA
Procedure, shortened: as §1

[12] = tested on: CYPES: yellow nutsedge (Cyperus esculentus); test: Post-Emergent Test II herbicidal activity; type: in vivo; settings: post-emergence, 336 h, 14 days, read-out: Visual Growth Reduction (%) 14 Days After Application CYPES
Procedure, shortened: as §1

COC(=O)c1nc(-c2ccc3nonc3c2C)cc(N)c1Cl [Compound 17]
45 to 59%: pest or weed control at 70 g/ha ([3]; 70 g ai/ha) | pest or weed control at 70 g/ha ([5]; 70 g ai/ha)
60 to 74%: pest or weed control at 140 g/ha ([3]; 140 g ai/ha) | pest or weed control at 140 g/ha ([5]; 140 g ai/ha) | pest or weed control at 35 g/ha ([6]; 35 g ai/ha) | pest or weed control at 35 g/ha ([12]; 35 g ai/ha) | pest or weed control at 70 g/ha ([12]; 70 g ai/ha)
30 to 44%: pest or weed control at 140 g/ha ([4]; 140 g ai/ha)
182 to 185 °C: melting point
85 to 94%: pest or weed control at 140 g/ha ([6]; 140 g ai/ha) | pest or weed control at 35 g/ha ([8]; 35 g ai/ha)
75 to 84%: pest or weed control at 70 g/ha ([6]; 70 g ai/ha) | pest or weed control at 140 g/ha ([12]; 140 g ai/ha)
95 to 100%: pest or weed control at 35 g/ha ([7]; 35 g ai/ha) | pest or weed control at 70 g/ha ([7]; 70 g ai/ha) | pest or weed control at 140 g/ha ([7]; 140 g ai/ha) | pest or weed control at 70 g/ha ([8]; 70 g ai/ha) | pest or weed control at 140 g/ha ([8]; 140 g ai/ha)
0 to 29%: pest or weed control at 35 g/ha ([1]; 35 g ai/ha) | pest or weed control at 70 g/ha ([1]; 70 g ai/ha) | pest or weed control at 140 g/ha ([1]; 140 g ai/ha) | pest or weed control at 35 g/ha ([2]; 35 g ai/ha) | pest or weed control at 70 g/ha ([2]; 70 g ai/ha) | pest or weed control at 140 g/ha ([2]; 140 g ai/ha) | pest or weed control at 35 g/ha ([3]; 35 g ai/ha) | pest or weed control at 35 g/ha ([4]; 35 g ai/ha) | pest or weed control at 70 g/ha ([4]; 70 g ai/ha) | pest or weed control at 35 g/ha ([5]; 35 g ai/ha) | pest or weed control at 35 g/ha ([9]; 35 g ai/ha) | pest or weed control at 70 g/ha ([9]; 70 g ai/ha) | pest or weed control at 140 g/ha ([9]; 140 g ai/ha) | pest or weed control at 35 g/ha ([10]; 35 g ai/ha) | pest or weed control at 70 g/ha ([10]; 70 g ai/ha) | pest or weed control at 140 g/ha ([10]; 140 g ai/ha) | pest or weed control at 35 g/ha ([11]; 35 g ai/ha) | pest or weed control at 70 g/ha ([11]; 70 g ai/ha) | pest or weed control at 140 g/ha ([11]; 140 g ai/ha)
